Measurements taken from PMC11946187 (Viruses, 2025).
Entries after “also recorded” stand apart in the source; their conditions may differ. Where two headings read alike, the source gives them in different places.

Columns and labels:
[1] = target: SFTSV endonuclease (full-length L protein) (Dabie bandavirus, UniProt I0DF35); experiment: biochemical; parameters: species or system severe fever with thrombocytopenia syndrome virus
[2] = target: SNV endonuclease (full-length L protein) (Sin Nombre orthohantavirus, UniProt A0A059WLS4); experiment: biochemical; parameters: species or system Sin Nombre virus
[3] = system: SNV L protein (RNA synthesis); type: biochemical, Sin Nombre virus
IBV RdRp (RNA synthesis) = type: biochemical, influenza B virus
[4] = target: IBV endonuclease (full-length IBV RdRp complex PA/PB1/PB2) (Influenza B virus, UniProt Q5V8Z9); experiment: biochemical
[5] = target: SFTSV L protein (RNA synthesis) (Dabie bandavirus, UniProt I0DF35); type: biochemical, severe fever with thrombocytopenia syndrome virus

Row | Structure (SMILES) | IC50 ([1]; IC50 (μM) SFTSV (Figure 7B)) | IC50 ([1]; IC50, SFTSV endonuclease activity) | concentration from which inhibition of SNV endonuclease became evident [2] | IC50 ([2]; IC50 (μM) SNV (Figure 7B)) | IC50 ([2]; IC50, SNV endonuclease activity) | inhibition of RNA synthesis by SNV [3] | inhibition of RNA synthesis by IBV (IBV RdRp (RNA synthesis)) | IC50 ([4]; IC50 (μM) IBV (Figure 7B)) | IC50 ([4]; IC50, endonuclease activity of IBV) | inhibition of RNA synthesis by SFTSV [5] | IC50 [4]
1 | O=C1c2c(O)c(=O)ccn2N([C@@H]2c3ccccc3SCc3c2ccc(F)c3F)[C@@H]2COCCN12 [BXA, Baloxavir acid, reference compound] | 16 µM | 16.5 µM | ~ 250 µM | > 100 µM | 622 µM | lack of inhibition of; also recorded: did not inhibit RNA synthesis | lack of inhibition of; also recorded: did not inhibit RNA synthesis | 0.21 ± 0.006 µM | 0.209 µM | lack of inhibition of; also recorded: did not inhibit RNA synthesis | –
2 | O=C1c2c(O)c(=O)ccn2N(C2c3ccccc3SCc3c2ccc(F)c3F)C2COCCN12 [kCOT909, (R)-12-((R)-7,8-difluoro-6,11-dihydrodibenzo[b,e]thiepin-11-yl)-7-hydroxy-3,4,12,12a-tetrahydro-1H-[1,4]oxazino[3,4c]pyrido[2,1-f] [1,2,4]triazine-6,8-dione] | > 100 µM | – | – | > 100 µM | – | lack of inhibition of RNA synthesis | lack of inhibition of RNA synthesis | 0.32 ± 0.006 µM | – | lack of inhibition of RNA synthesis | –
3 | O=C1c2c(O)c(=O)ccn2N([C@@H]2c3ccccc3CSc3ccccc32)[C@@H]2COCCN12 [kCOT912, (R)-12-((R)-6,11-dihydrodibenzo[b,e]thiepin-11-yl)-7-hydroxy-3,4,12,12a-tetrahydro-1H-[1,4]oxazino[3,4-c]pyrido[2,1-f][1,2,4]triazine-6,8-dione] | > 100 µM | – | – | > 100 µM | – | lack of inhibition of RNA synthesis | lack of inhibition of RNA synthesis | – | – | lack of inhibition of RNA synthesis | > 100 µM
4 | O=C(O)c1cn2c(c(O)c1=O)C(=O)N1CCOC[C@H]1N2[C@@H]1c2ccccc2SCc2c1ccc(F)c2F [kCOT923, (R)-12-((S)-7,8-difluoro-6,11-dihydrodibenzo[b,e]thiepin-11-yl)-7-hydroxy-6,8-dioxo-3,4,6,8,12,12a-hexahydro-1H-[1,4]oxazino[3,4-c]pyrido[2,1-f][1,2,4]triazine-9-carboxylic acid] | 41 µM | – | – | 13 ± 3 µM | – | lack of inhibition of RNA synthesis | lack of inhibition of RNA synthesis | – | – | lack of inhibition of RNA synthesis | 0.41 ± 0.02 µM
5 | CC(C)N1CN([C@H]2c3ccccc3SCc3c2ccc(F)c3F)n2ccc(=O)c(O)c2C1=O [kCPF855] | > 100 µM | – | – | > 100 µM | – | lack of inhibition of RNA synthesis | lack of inhibition of RNA synthesis | – | – | lack of inhibition of RNA synthesis | 0.71 ± 0.03 µM
